Data published in article PMC8395335, “Serotonergic–Muscarinic Interaction within the Prefrontal Cortex as a Novel Target to Reverse Schizophrenia-Related Cognitive Symptoms” (International Journal of Molecular Sciences, 2021).
Read-outs that look alike come from different tables or passages of the source. One block for each molecule: values may come before it.

How the values were obtained:
[1] = Pharmacokinetic analysis of drug-drug interactions (plasma, FC concentration, FC penetration); format: in vivo, mice; details: for Kp at 30 min: frontal cortex/plasma; for Decrease of FC penetration after acute concomitant administration with F15599: subeffective doses, compared to top dose alone
Procedure: (§1) The experiment was performed using the methods described by Bridges et al. and in our previous studies.
(§2) The pharmacokinetic analysis was performed in the blood and prefrontal cortex. […] Plasma and FC samples were stored at −80 °C until analysis.
The investigated compounds were administered alone at the top dose (F15599—0.1 mg/kg, VU0357017—5 mg/kg, VU0152100—1 mg/kg, and VU0238429—5 mg/kg) and in combinations of muscarinic ligands at subeffective doses with F15599 at subeffective dose (F15599 + VU0357017 0.05 and 0.15 mg/kg, F15599 + VU0152100 0.05 and 0.05 mg/kg, F15599 + VU0238429 0.05 and 1 mg/kg). The FC and blood were collected on the eighth day, 30 min after administration. All mice were parallelly treated with MK-801 (0.3 mg/kg) for seven consecutive days.
(§3) On the day of analysis, frozen whole mouse brain tissues were weighed and homogenized in 1:2 (w/v) volumes of ice-cold acetonitrile containing 0.1% FA and the internal standard mix. Samples were homogenized using a Metal Bead Lysing Matrix, vortexed for 1 min, shaken for 20 min at 4 °C on Thermomixer C, and centrifuged at 14,000× g rpm for 20 min at 4 °C. Finally, 50 µL of supernatant were diluted with 0.1% FA in water (1:1, v/v) and analyzed using HPLC/MS/MS.
(§4) The sample extraction of plasma (20 μL) was performed after spiking with the internal standard mix using the protein precipitation method and three volumes of ice-cold acetonitrile containing 0.1% formic acid. The extract was vortexed, incubated on ice for 20 min and centrifuged at 14,000× g rpm for 20 min at 4 °C. The supernatant was diluted with 0.1% FA in water (1:1, v/v) and analyzed by means of HPLC/MS/MS using a QTRAP 4500 (AB Sciex) mass spectrometer in positive ion mode in Multiple Reaction Monitoring (MRM screening) coupled with UHPLC (NEXERA XR, Shimadzu). Chromatographic separation was achieved on a Synergi 4 µm Fusion-RP 80 A 50 × 2 mm (Phenomenex) column at a flow rate of 0.2 mL/min. The gradient program was as follows: 20% B (0.3 min), 20–100% B (1.7 min), 100% B (3 min), 100–20% B (0.1 min), 20% B (2 min), solvent A (95:5:0.1% formic acid in water:methanol) and solvent B (methanol containing 0.1% formic acid). The column temperature was set to 40 °C. Analyst software was used to control the instrument and collect data. The ion transfer tube temperature was 300 °C. The spray voltage, collision energy, declastering potential, and gas parameters were optimized to achieve the maximal response using the test compounds. Selected reaction monitoring was carried out using the transition parameters. Calibration curves were constructed, and a linear response was obtained in the range of 0.25–500 ng/mL (VU357017, VU0152100, and F15599) and 1.25–2500 ng/mL (VU0238429) by spiking known amounts of each compound in blank brain homogenates and plasma. For VU0357017 and F15599 IS VU0152100 was used as internal standard. Sample concentration of internal standard was 100 ng/mL for IS VU0238429 and 50 ng/mL for IS VU0152100.
Brain penetration was calculated as FC/plasma ratio × 100%.

PCP-induced deficits = test system: PCP-induced deficits; set-up: method as in PMID 20488670; details: cited from earlier work
in vivo = experiment: in vivo; set-up: species or system mice; details: mouse
Procedure: as §1, §2
The drug was administered at a dose of 0.1 mg/kg; brain and tissue samples were collected 15, 30, 60, and 120 min after administration.
as §3, §4

rats = test system: rats; set-up: method as in PMID 19154445; details: cited from earlier work
[2] = set-up: method as in PMID 31174329, PMID 19438238; details: earlier studies; cited from earlier work
[3] = Albino Swiss, mouse, in vivo, 30 min
[4] = Albino Swiss, mouse, intraperitoneal, acute, top doses alone (VU0357017 5, VU0152100 1, VU0238429 5, F15599 0.1 mg/kg), 30 min after administration, read-out: PFC Penetration (FC/plasma ratio x 100%)
[5] = Albino Swiss, mouse, intraperitoneal, chronic (7 days with MK-801), top doses alone (VU0357017 5, VU0152100 1, VU0238429 5, F15599 0.1 mg/kg), read-out: PFC Penetration (FC/plasma ratio x 100%)
[6] = Albino Swiss, mouse, plasma, intraperitoneal, acute, top doses alone (VU0357017 5, VU0152100 1, VU0238429 5, F15599 0.1 mg/kg), 30 min after administration, read-out: Plasma
[7] = Albino Swiss, mouse, plasma, intraperitoneal, chronic (7 days with MK-801), top doses alone (VU0357017 5, VU0152100 1, VU0238429 5, F15599 0.1 mg/kg), read-out: Plasma
[8] = Albino Swiss, mouse, prefrontal cortex (FC), intraperitoneal, acute, top doses alone (VU0357017 5, VU0152100 1, VU0238429 5, F15599 0.1 mg/kg), 30 min after administration, read-out: PFC
[9] = Albino Swiss, mouse, prefrontal cortex (FC), intraperitoneal, chronic (7 days with MK-801), top doses alone (VU0357017 5, VU0152100 1, VU0238429 5, F15599 0.1 mg/kg), read-out: PFC
[10] = acute, top doses alone (VU0357017 5, VU0152100 1, VU0238429 5, F15599 0.1 mg/kg), 30 min after administration
[11] = chronic (7 days with MK-801), top doses alone (VU0357017 5, VU0152100 1, VU0238429 5, F15599 0.1 mg/kg)
[12] = top doses alone, animals treated with MK-801

PFC ([1]; Albino Swiss, mouse, in vivo, 0.1 mg/kg, 30 min): 21.57 ± 1.26 ng/mL | concentration at 30 min ([1]; Albino Swiss, mouse, in vivo, 0.1 mg/kg, PFC): 18.3 ± 0.84 ng/mL | Decrease of FC penetration after prolonged administration compared to acute [1, 3]: ca. 50% | Decrease of FC penetration of F15599 when administered simultaneously [1, 3]: ~ 50% | Effect of chronic administration of subeffective doses (combinations) on brain penetration ([1]; mouse, in vivo): increased | Time after administration up to which drug was detected in the frontal cortex (in vivo; Albino Swiss): up to 2 h | Tmax (in vivo; Albino Swiss, ip, 0.1 mg/kg): 15 min | Tmax PFC (FC) (in vivo; Albino Swiss, ip, 0.1 mg/kg): 15 min | half-life (in vivo; Albino Swiss, ip, 0.1 mg/kg): 120 min | Cmax (in vivo; Albino Swiss, ip, 0.1 mg/kg, Cmax PFC (FC)): 48 ng/mL | Cmax (in vivo; Albino Swiss, ip, 0.1 mg/kg, Cmax plasma): 27 ng/mL | half-life (in vivo; ip, 0.1 mg/kg): 35 min
Compound: Cc1cnc(CNCC2(F)CCN(C(=O)c3ccc(F)c(Cl)c3)CC2)nc1 [F15599]
Effect on PCP-induced deficits during the reversal phase of the learning task and in the hole-board test (PCP-induced deficits): ameliorated | Doses inducing some adverse effects related to serotonergic syndrome (rats): greater than 0.16 mg/kg

Kp at 30 min ([1]; Albino Swiss, mouse, intraperitoneal, acute, combination F15599 0.05 mg/kg + VU0238429 1 mg/kg, read-out: PFC Penetration): 0.36 | Kp at 30 min [1, 4]: 0.53 | Kp at 30 min ([1]; Albino Swiss, mouse, intraperitoneal, chronic (7 days with MK-801), combination F15599 0.05 mg/kg + VU0238429 1 mg/kg, read-out: PFC Penetration): 0.15 | Kp at 30 min [1, 5]: 0.21 | concentration at 30 min ([1]; Albino Swiss, mouse, plasma, intraperitoneal, acute, combination F15599 0.05 mg/kg + VU0238429 1 mg/kg, read-out: Plasma): 120 ± 13.9 ng/mL | concentration at 30 min [1, 6]: 486 ± 178 ng/mL | concentration at 30 min ([1]; Albino Swiss, mouse, plasma, intraperitoneal, chronic (7 days with MK-801), combination F15599 0.05 mg/kg + VU0238429 1 mg/kg, read-out: Plasma): 35 ± 8.89 ng/mL | concentration at 30 min [1, 7]: 844 ± 235 ng/mL | concentration at 30 min ([1]; Albino Swiss, mouse, prefrontal cortex (FC), intraperitoneal, acute, combination F15599 0.05 mg/kg + VU0238429 1 mg/kg, read-out: PFC): 43.1 ± 1.81 ng/mL | concentration at 30 min [1, 8]: 256 ± 32.1 ng/mL | concentration at 30 min ([1]; Albino Swiss, mouse, prefrontal cortex (FC), intraperitoneal, chronic (7 days with MK-801), combination F15599 0.05 mg/kg + VU0238429 1 mg/kg, read-out: PFC): 5.13 ± 0.83 ng/mL | concentration at 30 min [1, 9]: 179 ± 25 ng/mL | Fold higher penetration to the FC than to whole brain ([1]; FC penetration versus earlier whole-brain data): more than 6 times | PFC Penetration (FC/plasma ratio x 100%) [1, 10]: 53% | PFC Penetration (FC/plasma ratio x 100%) [1, 11]: 21% | Decrease of FC penetration after acute concomitant administration with F15599 [1]: ~ 40% | Decrease of FC penetration after prolonged administration compared to acute [1, 12]: ca. 50%
Compound: COc1ccc(CN2C(=O)C(=O)c3cc(OC(F)(F)F)ccc32)cc1 [VU0238429]
Brain penetration (whole brain) [2]: ≤ 8%

Kp at 30 min ([1]; Albino Swiss, mouse, intraperitoneal, acute, combination F15599 0.05 mg/kg + VU0357017 1 mg/kg, read-out: PFC Penetration): 0.31 | Kp at 30 min [1, 4]: 0.67 | Kp at 30 min ([1]; Albino Swiss, mouse, intraperitoneal, chronic (7 days with MK-801), combination F15599 0.05 mg/kg + VU0357017 0.15 mg/kg, read-out: PFC Penetration): 0.46 | Kp at 30 min [1, 5]: 0.36 | concentration at 30 min ([1]; Albino Swiss, mouse, plasma, intraperitoneal, acute, combination F15599 0.05 mg/kg + VU0357017 1 mg/kg, read-out: Plasma): 7.19 ± 0.24 ng/mL | concentration at 30 min [1, 6]: 107 ± 7.65 ng/mL | concentration at 30 min ([1]; Albino Swiss, mouse, plasma, intraperitoneal, chronic (7 days with MK-801), combination F15599 0.05 mg/kg + VU0357017 0.15 mg/kg, read-out: Plasma): 5.13 ± 0.38 ng/mL | concentration at 30 min [1, 7]: 138 ± 14.9 ng/mL | concentration at 30 min ([1]; Albino Swiss, mouse, prefrontal cortex (FC), intraperitoneal, acute, combination F15599 0.05 mg/kg + VU0357017 1 mg/kg, read-out: PFC): 2.25 ± 0.56 ng/mL | concentration at 30 min [1, 8]: 71.7 ± 4.69 ng/mL | concentration at 30 min ([1]; Albino Swiss, mouse, prefrontal cortex (FC), intraperitoneal, chronic (7 days with MK-801), combination F15599 0.05 mg/kg + VU0357017 0.15 mg/kg, read-out: PFC): 2.34 ± 0.255 ng/mL | concentration at 30 min [1, 9]: 50.3 ± 4.62 ng/mL | PFC Penetration (FC/plasma ratio x 100%) [1, 10]: 67% | PFC Penetration (FC/plasma ratio x 100%) [1, 11]: 36% | Decrease of FC penetration after acute concomitant administration with F15599 [1]: more than 50% | Decrease of FC penetration after prolonged administration compared to acute [1, 12]: ca. 50%
Compound: CCOC(=O)N1CCC(NCCNC(=O)c2ccccc2C)CC1 [VU0357017]
